Measured values taken from US9403873B2, “Peptides targeting receptor activator of nuclear factor-κB (RANK) and their applications” (UNIVERSITE DE NANTES, priority 2011, dated 2016).
“Also recorded” adds a separate entry of the source. Ends that are not written are not given here.

Legend:
[1] = tested on: HEK-RANK cells (human embryonic kidney cells overexpressing RANK); assay: RANK signaling and receptor half-life study in HEK-RANK cells; type: cell-based
Procedure: (A) Inhibition of activation of Akt, p38 and ERK by Pep8 (50 μM) was assessed as inhibition of phosphorylation (p) in RAW264.7 cells using Western blot analysis with antibodies against phospho-Akt, phospho-p38 and phospho-ERK. Immunoblots were stripped and then reprobed with antibodies against Akt, p38 and ERK. β-Actin served as loading control. (B) Western blot analyses of NF-κB distribution in the presence or absence of 50 μM Pep8. After treatment with the polypeptide, RAW264.7 cells were fractionated into nuclear and cytoplasmic portions. Nuclear proteins (45 μg) were analyzed with anti-NF-κB p105, p50 and p65 antibodies, while cytoplasmic proteins (30 μg) were analyzed with anti-IκBα. For the non-canonical NF-κB pathway, RelB expression was analyzed in both fractions. β-Actin, HDAC1 and Histone H3 served as loading controls for the cytoplasmic and nuclear fractions, respectively. A representative experiment is shown; time after RANKL stimulation is indicated in parenthesis. (C) Receptor half-life study. […] RANK expression was determined with anti-RANK/TNFRSF11A.
Murine RAW264.7 cells (ATCC) were cultured in αMEM (Invitrogen) supplemented with 10% FBS (Hyclone). Human embryonic kidney 293 cells (ATCC) were stably transduced with an expression-ready clone (Ex-00007-Lv105, OmicsLink™ Expression Clone, GeneCopoeia™) containing the ORF cDNA of RANK/TNFRSF11A. […]

monocytes = assay: Cytotoxicity on monocytes; type: cell-based; details: 100 μM
[2] = tested on: ovariectomized C57BL/6 mice; assay: Ovariectomy-induced bone loss in mice, micro-CT of tibiae and L4 vertebrae; type: in vivo, mouse; details: 35 days
From the text: Eight-week-old ovariectomized (OVX) female C57BL6 and non-ovariectomized control mice were purchased from Janvier (Le Genest Saint Ilsle, France). Mice were housed under pathogen-free conditions at the Experimental Therapy Unit (Faculty of Medicine, University of Nantes, France), and animal care and experimental protocols were approved by the French Ministry of Research and were done in accordance with the institutional guidelines of the French Ethical Committee and under the supervision of authorized investigators. After recovery from OVX surgery for 7 days and acclimation, the mice were randomly divided into treatment groups receiving daily subcutaneous injections of a peptide and a control group receiving daily injections of the vehicle (PBS) only. Non-ovariectomized or sham-operated mice were included in the studies as healthy controls. Three experimental protocols were established. Protocol 1: Ovariectomized mice received daily s.c. injections of 10 mg/kg body weight Pep8 (Pep8, n=8) or vehicle only (OVX, n=8). Non-ovariectomized (NOV, n=8) mice served as normal controls. Protocol 2: Ovariectomized mice were randomly divided into four groups (n=8), receiving daily treatments with pegylated Pep8 (Pep8-NPEG5) at 10 mg/kg or 2.5 mg/kg, or unpegylated Pep8 at a dose of 10 mg/kg/d, or the vehicle only. Sham-operated mice (n=5) served as healthy controls. Protocol 3: Ovariectomized mice receiving daily treatments with pegylated Pep8 (Pep8-NPEG8) at 10 mg/kg or 2.5 mg/kg, as described before, or unpegylated Pep8 at a lower dose of 2.5 mg/kg/d, or the vehicle only. Sham-operated mice (n=8) served as healthy controls.
During the experimental period, the body weight of the mice was monitored. […] After treatment for five weeks, mice were anesthetized with isoflurane (2%, 1 L/min) and sacrificed by cervical dislocation. Lumbar vertebrae and tibiae were collected for micro-CT analysis and stored at 4° C. in 4% paraformaldehyde until further analysis. Additionally, internal organs (heart, liver, lungs, kidneys, spleen, intestines and thymus) of some mice (n=3 per group) were harvested and stored for toxicity screening.
Analysis of architectural variables of tibiae and vertebrae of mice was performed using the high-resolution X-ray micro-CT system for small animal imaging SkyScan-1072 (SkyScan, Belgium). After scanning, the image data were transferred to a workstation and the proximal tibiae and the fourth lumbar vertebrae (L4) were rendered for 3-D display and calculation of the structural indices (Parfitt et al. 1987) using the SkyScan analysis system (CT-analyser, CT-volume, SkyScan). For trabecular bone parameters in tibiae, transverse CT slices were obtained in the region of interest in the axial direction from the trabecular bone ca. 0.1 mm below the growth plate to the mid-femur. Contours were defined and drawn close to the cortical bone. The trabecular bone was then removed and analyzed separately. Fifty slices (1 mm) at approximately […] distal to the growth plate of the proximal ends of the tibiae were used for analysis. […] The threshold level for the measurements was set at 55 for the analyses. The analysis of the specimens involved the following bone measurements: bone volume fraction (BV/TV, %), trabecular number (TbN), trabecular thickness (TbTh) and trabecular spacing (TbSp).

human CD14+ monocytes = type: cell-based
From the text: Human peripheral blood mononuclear cells (PBMCs) were isolated by centrifugation over Ficoll gradient (Sigma, Saint Quentin Fallavier, France). CD14^+ cells were magnetically labeled with CD14 Microbeads and positively selected by MACS technology (Miltenyi Biotec, Paris, France) as described previously (Duplomb et al. 2008). CD11b^+ monocytes were purified from murine bone marrow cells obtained by flushing the bone marrow from femora and tibiae of 4-week-old C57BL6 male mice, using MACS microbeads (Baud'huin et al. 2010). The purity of cell preparations was around 96%, as controlled by flow cytometry. Generation of osteoclasts from human CD14^+ and murine CD11b^+ monocytes was performed as described previously (Duplomb et al. 2008, Baud′huin et al. 2010). Briefly, purified cells were cultured in α-minimum essential medium (α-MEM, Gibco/Invitrogen, USA) with 10% fetal calf serum and 25 ng/mL human/murine macrophage colony-stimulating factor (M-CSF, R&D Systems, Abindgton, UK). After 3 days of culture, cell medium was replaced by fresh medium containing M-CSF and recombinant human RANKL (100 ng/mL, R&D system), supplemented with or without a polypeptide of interest (0.5-100 μM) or 50 ng/mL human OPG (R&D Systems) used as a reference inhibitor. Soluble cytokines, receptor and polypeptides were renewed every 3 days until multinucleated osteoclasts had formed. After 12 days of culture for CD14^+ cells and 15 days for CD11b^+ cells, osteoclasts were visualized by TRAP staining (Sigma, France) and cells formed with three or more nuclei were manually counted and analyzed statistically.

[3] = 10 mg/kg/day s.c., vs vehicle-treated OVX mice

With NVLKLCSGE [Pep8, NVLKLCSGE] the “activation of p38 after stimulation with RANKL” value [1] was “strongly inhibited”, the “degradation of RANK in presence of cycloheximide” value ([1]; CHX 4 μg/mL, Pep8 200 μM, compared with RANKL) was “lead to a degradation of RANK, although to a somewhat lesser extent” and the cytotoxic effect (monocytes) was “no cytotoxic effect”. The “protection against OVX-induced trabecular bone loss (μCT, tibiae)” value ([2]; 2.5 mg/kg/d s.c.) was “less efficient”, the “trabecular BV/TV and TbN, tibiae” value ([2]; 2.5 mg/kg/d, vs vehicle) was “only slightly, but not significantly increasing” and the “protection against OVX-induced trabecular bone loss (μCT)” value ([2]; 10 mg/kg/d s.c.) was “prevented the loss of trabecular bone; also recorded: overall increase in trabecular bone density”. For the same sequence, the “increase of TbN, proximal tibia” value [2, 3] was 71%, the “increase of TbTh, proximal tibia” value [2, 3] was 14% and the “increase of trabecular BV/TV, proximal tibia” value [2, 3] was 93%. The “TbS, proximal tibia” value ([2]; 10 mg/kg/day s.c., vs vehicle-treated mice) was “decline”, the “TbN, lumbar vertebrae” value ([2]; 10 mg/kg/day) was “increased” and the “TbS, lumbar vertebrae” value ([2]; 10 mg/kg/day) was “reduced”. The “TbTh, lumbar vertebrae” value ([2]; 10 mg/kg/day, vs OVX control mice) was “slightly, but not statistically significantly increased”, the “vertebral trabecular BV/TV” value ([2]; lumbar vertebrae, 10 mg/kg/day) was “lower in OVX than Pep8-treated mice” and the IC50 (human CD14+ monocytes) was 40 µM. The “inhibitory activity on osteoclastogenesis” value (human CD14+ monocytes; 50 μM polypeptide, screen of 8 new polypeptides) was “inhibitory activity similar to that of the RANKL-targeting mimetics OP3-4 and WP9QY”, the “number of TRAP-positive multinucleated cells, % of the number formed without the polypeptide” value (human CD14+ monocytes; 100 μM, human cultures) was 39% and the “osteoclast development with polypeptide alone” value (human CD14+ monocytes; absence of RANKL) was “did not modulate osteoclast development”.
